Reference: patent US11267824B2, “Inhibitors of indoleamine 2,3-dioxygenase and/or tryptophan 2,3-dioxygenase” (IDORSIA PHARMACEUTICALS LTD, priority 2017, dated 2022)

Tests used:
[1] = target: Recombinant full-length human IDO1 (Homo sapiens (Human), UniProt P14902); test: IDO1 enzymatic assay (IDO inhibitory activity); type: biochemical; settings: 2 nM enzyme, 5 μM L-tryptophan, pH6.5, 30 min pre-incubation, NFK quantified by LCMS; mean values if measured multiple times; read-out: hIDO activity (IC50 in nM)
Recombinant full-length human IDO1, sequence (P14902 whole entry): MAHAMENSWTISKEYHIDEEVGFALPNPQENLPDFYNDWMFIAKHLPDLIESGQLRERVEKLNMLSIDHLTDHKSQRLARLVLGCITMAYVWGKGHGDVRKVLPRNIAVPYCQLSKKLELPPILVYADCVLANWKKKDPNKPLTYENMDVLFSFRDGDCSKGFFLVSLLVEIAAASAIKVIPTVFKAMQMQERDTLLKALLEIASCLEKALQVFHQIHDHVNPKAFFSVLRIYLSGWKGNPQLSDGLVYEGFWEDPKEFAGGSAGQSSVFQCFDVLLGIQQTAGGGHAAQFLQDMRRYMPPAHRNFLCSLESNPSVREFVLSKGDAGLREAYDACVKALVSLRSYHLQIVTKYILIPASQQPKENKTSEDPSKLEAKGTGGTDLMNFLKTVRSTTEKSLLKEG
Method in brief: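 N-His-tagged enzyme from E. coli at 2 nM in 37.5 mM phosphate pH6.5 with ascorbate, methylene blue, catalase; compounds 10 μM–0.5 nM, 0.6% DMSO, pre-incubated 30 min RT, then 5 μM L-tryptophan for 30 min RT. NFK quantified by LCMS against d5-tryptophan; IC50 from duplicate four-parameter fit, means where repeated.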

[2] = target: Recombinant human TDO comprising amino acids 19-407 (Homo sapiens (Human), UniProt P48775); test: TDO2 enzymatic assay (TDO inhibitory activity); type: biochemical; settings: 15 nM enzyme, 200 μM L-tryptophan, pH7, 30 min pre-incubation, NFK quantified by LCMS; mean values if measured multiple times; read-out: hTDO activity (IC50 in nM)
Recombinant human TDO comprising amino acids 19-407, sequence (P48775 19-406 limits assumed): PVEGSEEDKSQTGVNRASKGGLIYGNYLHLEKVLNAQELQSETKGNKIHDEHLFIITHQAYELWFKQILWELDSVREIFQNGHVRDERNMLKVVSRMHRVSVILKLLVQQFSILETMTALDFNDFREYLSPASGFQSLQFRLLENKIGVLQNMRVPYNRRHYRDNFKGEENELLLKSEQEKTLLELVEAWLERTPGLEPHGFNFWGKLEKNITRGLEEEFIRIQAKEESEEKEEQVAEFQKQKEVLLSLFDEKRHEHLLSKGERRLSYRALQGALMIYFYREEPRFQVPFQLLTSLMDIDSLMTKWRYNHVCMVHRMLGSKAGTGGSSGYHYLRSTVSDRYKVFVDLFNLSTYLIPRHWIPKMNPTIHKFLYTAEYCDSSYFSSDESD
Method in brief: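 His-tagged enzyme (15 nM, E. coli-expressed) in pH 7 phosphate buffer with ascorbate, catalase, BSA, Tween 20, 0.6% DMSO; 30 min RT pre-incubation with compound (10 μM–0.5 nM), then 200 μM L-tryptophan for 30 min RT. N′-formylkynurenine quantified by LCMS against deuterated tryptophan; IC50 by four-parameter fit, duplicates.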

Compound	IC50 [1]	IC50 [2]
CC(CC(O)c1c(C2CC2)sc2cncn12)C1CCCCC1 (stereo not drawn) [Example 65, 3-Cyclohexyl-1-(2-cyclopropyl-imidazo[5,1-b]thiazol-3-yl)-butan-1-ol]	124 nM	931 nM
CC1(C)CC(C(O)c2c(C3CC3)sc3cncn23)C1 (racemic) [Example 36, rac-(2-Cyclopropyl-imidazo[5,1-b]thiazol-3-yl)-(3,3-dimethyl-cyclobutyl)-methanol]	5.38 nM	269 nM
OC(c1ccccc1)c1c(C2CC2)sc2cncn12 (racemic) [Example 50, rac-(2-Cyclopropyl-imidazo[5,1-b]thiazol-3-yl)-phenyl-methanol]	50.5 nM	989 nM
OC(CC1CCC(c2ccccc2)C1)c1c(C(F)(F)F)sc2cncn12 (stereo not drawn) [Example 112, 2-(3-Phenyl-cyclopentyl)-1-(2-trifluoromethyl-imidazo[5,1-b]thiazol-3-yl)-ethanol]	666 nM	> 10200 nM
CC1(C)CC([C@H](O)c2c(C3CC3)sc3cncn23)C1 [Example 36a, (S)-(2-Cyclopropyl-imidazo[5,1-b]thiazol-3-yl)-(3,3-dimethyl-cyclobutyl)-methanol]	5.03 nM	246 nM
CCCc1sc2cncn2c1C(O)CC1CCCCC1 (racemic) [Example 129, rac-2-Cyclohexyl-1-(2-propyl-imidazo[5,1-b]thiazol-3-yl)-ethanol]	36.8 nM	595 nM
OC(c1ccc(C(F)(F)F)cc1)c1c(C2CC2)sc2cncn12 (racemic) [Example 159, rac-(2-Cyclopropyl-imidazo[5,1-b]thiazol-3-yl)-(4-trifluoromethyl-phenyl)-methanol]	305 nM	2700 nM
OC(c1c(C2CC2)sc2cncn12)C1CCC(Cc2ccccc2)C1 (stereo not drawn) [Example 77, (3-Benzyl-cyclopentyl)-(2-cyclopropyl-imidazo[5,1-b]thiazol-3-yl)-methanol]	91.2 nM	3900 nM
CCn1cc(C(O)c2c(C3CC3)sc3cncn23)nn1 (racemic) [Example 193, rac-(2-Cyclopropyl-imidazo[5,1-b]thiazol-3-yl)-(1-ethyl-1H-[1,2,3]triazol-4-yl)-methanol]	498 nM	> 10200 nM
O[C@@H](CC1CCCCCC1)c1c(C2CC2)sc2cncn12 [Example 28a, (S)-2-Cycloheptyl-1-(2-cyclopropyl-imidazo[5,1-b]thiazol-3-yl)-ethanol]	22.2 nM	358 nM
CC(C)n1cc(C(O)c2c(C3CC3)sc3cncn23)nn1 (racemic) [Example 194, rac-(2-Cyclopropyl-imidazo[5,1-b]thiazol-3-yl)-(1-isopropyl-1H-[1,2,3]triazol-4-yl)-methanol]	304 nM	> 10200 nM
OC(c1cccs1)c1c(Br)sc2cncn12 (racemic) [Example 32, rac-(2-Bromo-imidazo[5,1-b]thiazol-3-yl)-thiophen-2-yl-methanol]	63.4 nM	643 nM
OC(CC1CCC(C(F)F)CC1)c1c(C2CC2)sc2cncn12 (racemic) [Example 138, rac-1-(2-Cyclopropyl-imidazo[5,1-b]thiazol-3-yl)-2-(4-difluoromethyl-cyclohexyl)-ethanol]	24.3 nM	467 nM
COC1CCCC(C(O)c2c(C3CC3)sc3cncn23)C1 (stereo not drawn) [Example 79, (2-Cyclopropyl-imidazo[5,1-b]thiazol-3-yl)-(3-methoxy-cyclohexyl)-methanol]	109 nM	1850 nM
OC(CC1CC2C=CC1C2)c1c(C2CC2)sc2cncn12 (stereo not drawn) [Example 38, 2-Bicyclo[2.2.1]hept-5-en-2-yl-1-(2-cyclopropyl-imidazo[5,1-b]thiazol-3-yl)-ethanol]	22.6 nM	191 nM
Cc1cccc(C(O)c2c(C3CC3)sc3cncn23)c1 (racemic) [Example 52, rac-(2-Cyclopropyl-imidazo[5,1-b]thiazol-3-yl)-m-tolyl-methanol]	64.8 nM	22.3 nM

Next, values leading:

IC50 [1]	IC50 [2]	Compound
20.9 nM	341 nM	O[C@H](c1c(C(F)(F)F)sc2cncn12)C1CCCCC1 [Example 63a, (S)-Cyclohexyl-(2-trifluoromethyl-imidazo[5,1-b]thiazol-3-yl)-methanol]
75.7 nM	1080 nM	OC(c1c(C2CC2)sc2cncn12)C1CCCC(C(F)(F)F)C1 (stereo not drawn) [Example 104, (2-Cyclopropyl-imidazo[5,1-b]thiazol-3-yl)-(3-trifluoromethyl-cyclohexyl)-methanol]
15.5 nM	386 nM	CC(C)c1sc2cncn2c1[C@@H](O)CC1CCCCC1 [Example 4a, (S)-2-Cyclohexyl-1-(2-isopropyl-imidazo[5,1-b]thiazol-3-yl)-ethanol]
1070 nM	1780 nM	OC(c1c(C2CC(F)(F)C2)sc2cncn12)C1CCCCC1 (racemic) [Example 156, rac-Cyclohexyl-[2-(3,3-difluoro-cyclobutyl)-imidazo[5,1-b]thiazol-3-yl]-methanol]
159 nM	1210 nM	OC(CC1CCCCC1)c1c(Cl)sc2cncn12 (racemic) [Example 16, rac-1-(2-Chloro-imidazo[5,1-b]thiazol-3-yl)-2-cyclohexyl-ethanol]
14.4 nM	29.3 nM	C=Cc1sc2cncn2c1C(O)C1CCCCC1 (racemic) [Example 68, rac-Cyclohexyl-(2-vinyl-imidazo[5,1-b]thiazol-3-yl)-methanol]
895 nM	2130 nM	CC(C)(C)c1sc2cncn2c1C(O)CC1CCCCC1 (racemic) [Example 12, rac-1-(2-(tert-Butyl)imidazo[5,1-b]thiazol-3-yl)-2-cyclohexylethan-1-ol]
744 nM	327 nM	COCc1sc2cncn2c1C(O)C1CCCCC1 (racemic) [Example 157, rac-Cyclohexyl-(2-methoxymethyl-imidazo[5,1-b]thiazol-3-yl)-methanol]
58.3 nM	2770 nM	CC1(C)CCC(C(O)c2c(C(F)(F)F)sc3cncn23)CC1 (racemic) [Example 161, rac-(4,4-Dimethyl-cyclohexyl)-(2-trifluoromethyl-imidazo[5,1-b]thiazol-3-yl)-methanol]
7110 nM	4270 nM	OC(c1c(Cc2ccccc2)sc2cncn12)C1CCCCC1 (racemic) [Example 154, rac-(2-Benzyl-imidazo[5,1-b]thiazol-3-yl)-cyclohexyl-methanol]
16.3 nM	54.7 nM	CC1(C(O)c2c(C(F)(F)F)sc3cncn23)CCCC1 (racemic) [Example 137, rac-(1-Methyl-cyclopentyl)-(2-trifluoromethyl-imidazo[5,1-b]thiazol-3-yl)-methanol]
965 nM	885 nM	OC(c1c(-c2cccc(F)c2)sc2cncn12)C1CCCCC1 (racemic) [Example 181, rac-Cyclohexyl-[2-(3-fluoro-phenyl)-imidazo[5,1-b]thiazol-3-yl]-methanol]
15.1 nM	288 nM	OC(c1c(C2CC2)sc2cncn12)C1CCCCC1 (racemic) [Example 1, rac-Cyclohexyl(2-cyclopropylimidazo[5,1-b]thiazol-3-yl)methanol]
27 nM	564 nM	OC(c1c(C(F)(F)F)sc2cncn12)C1CCCCC1 (racemic) [Example 63, rac-Cyclohexyl-(2-trifluoromethyl-imidazo[5,1-b]thiazol-3-yl)-methanol]
